The record followed here is US7838565B2, “Use of cyclohexenone derivatives in the manufacture of a medicament for treating diabetic complications” (Meiji Dairies Corporation, priority 2001, dated 2010).

Molecules are shown by their SMILES. Values joined by “and” are separate entries in the source; they are usually repeats but may differ in a detail not shown here. Identical values can stand only once.

What all share (assay type): in vivo
Assay [1] deals with model rat of diabetes (streptozotocin). Description: Test 1: neural stimulus conduction rate (sciatic nerve) in STZ diabetes model rat. To be noted: STZ (65 mg/kg i.p.) diabetes rat, 8 mg/kg daily i.p. for 8 weeks, mean ± S.E. The protocol: (§1) To a rat, 65 mg/kg of streptozotocin (STZ) was administered intraperitoneally to prepare a model rat of diabetes. After intraperitoneal administration of Compound 4 obtained in Preparation Example 4 at a daily dose of 8 mg/kg for 8 weeks from two days after administration of STZ, the conduction rate of stimulus to sciatic nerve was measured by inserting a needle electrode for potential measurement into the vicinity of the right sciatic nerve, right Achilles tendon, and right plantar. Measurement was conducted three times and the mean of them was designated as the nerve stimulus conduction rate of the rat. Each group consisted of 10 to 12 rats.

For assay [2] the test system is unchanged. Description: Test 2: maximum quantity excreted by single urination, metabolic cage, STZ diabetes model rat. To be noted: 8 mg/kg daily i.p. for 8 weeks, recorded for 24 hours in metabolic cage, mean ± S.E. The procedure:
as §1
In a similar manner to Test 1, Compound 4 obtained in Preparation Example 4 was administered intraperitoneally to a rat at a daily dose of 8 mg/kg day for 8 weeks from two days after administration of STZ. Its urination pattern such as urination frequency and urination amount was then recorded for 24 hours at 2.5-min intervals by using a metabolic cage.

The test system is the same in assay [3]. Nature of the assay: Test 3: bladder capacity and urination efficiency by intravesical pressure measurement under anesthesia, STZ diabetes model rat. To be noted: 8 mg/kg daily i.p. for 8 weeks, mean ± S.E. The procedure: as §1
In a similar manner to Test 1, Compound 4 obtained in Preparation Example 4 was administered intraperitoneally to a rat at a daily dose of 8 mg/kg for 8 weeks from two days after administration of STZ. The intravesical pressure of the rat was then measured under anesthesia, whereby bladder capacity and urination efficiency were determined.
The urination efficiency was determined from an excreted quantity/bladder capacity ratio.
Urination efficiency (%)=100×excreted quantity/bladder capacity

In the case of `CC1=C(CCCCCCCCCCCCCCCO)C(C)(C)CCC1=O` [Compound 4, 3-(15-Hydroxypentadecyl)-2,4,4-trimethyl-2-cyclohexen1-one], the “Conduction rate of stimulus to nerve” value in assay [1] is 45.5 m/sec and 45.5 ± 1.2 m/sec. Further, the “Maximum amount excreted by single urination” value in assay [2] was found to be 3.71 ± 0.26 mL. In assay [3], the “Bladder capacity (urination-inducing)” value worked out at 0.54 ± 0.07 mL and the “Urination efficiency (100×excreted quantity/bladder capacity)” value came out at 75.0±6.1%.
